Data published in US11718645B2, “Macrocyclic therapeutic agents, methods of manufacture, and methods of treatment” (University of Florida Research Foundation, Incorporated, priority 2014, dated 2023).

Experiments:
Microsomal stability = type: in vitro ADME, mouse
Protocol: HPLC-MS was done on a 3200 QTRAP (Applied Biosystems) equipped with a Shimadzu (Kyoto, Japan) UFLC System. Mouse serum and harmine were purchased from Sigma-Aldrich. Pooled CD1 mouse liver (female) microsomes were purchased from XenoTech, LCC (Lenexa, Kans.) with protein concentrations of 0.5 mg/ml. HCT116 cell lysates were prepared with PhosphoSafe lysis buffer (Novagen). Protein concentration was determined by using the BCA Assay. Analysis was carried out similarly as previously described [Liu, Y.; Salvador, L. A.; Byeon, S.; Ying, Y.; Kwan, J. C.; Law, B. K.; Hong, J.; Luesch. H. J. Pharmacol. Exp. Ther. 2010, 335, 351-361].
The stability of apratoxin A, S4 (BK), S7 (BL), S8 (BM) and S9 (BN) in the presence of mouse microsomes was determined by using an adaptation of a published procedure [Ackley, D. C.; Rockich, K. T.; Baker, T. R. Optimization in Drug Discovery: In Vitro Methods (Series: Methods in Pharmacology and Toxicology) (eds Yan Z, Caldwell J W) 2004, pp 151-162, Springer, New Jersey]. In brief, microsomes were added to prewarmed phosphate buffer (100 mM, pH 7.4) at 37° C. Apratoxin A, BK, BL, BM, or BN (3 μL) were added to the microsomal preparation followed by NADPH cofactor solution (1.3 mM NADP, 3.3 mM glucose 6-phosphate, 0.4 U/mL glucose-6-phosphate dehydrogenase, 3.3 mM MgCl2). The reaction was allowed to proceed for 3 min to 3 h (7 time points) at 37° C. (thermomixer, 1050 rpm). The reaction was quenched by addition of ethyl acetate and subsequently spiked with harmine. The zero time point was defined by denaturing the microsomes with ethyl acetate before the addition of apratoxins. Incubation of apratoxins with microsomes alone was also performed following the same procedure to determine NADPH-dependent metabolism. The final concentration of the incubation mixture contained 0.5 mg/ml protein concentration and 1 μM apratoxins.
(§1) Analysis of apratoxin A, S4 (BK), S7 (BL), S8 (BM) and S9 (BN) was done by using HPLC-MS [column, Onyx Monolithic C18 (3.0×100 mm), Phenomenex (Torrance, Calif.); solvent, water (solvent A) acetonitrile (solvent B); flow rate, 0.5 ml/min; detection by electrospray ionization-MS in positive ion mode (MRM scan)]. A stepwise gradient elution was used starting at 60% B and 40% A, then increasing to 80% B at 5 min and maintained at this condition for 5 min. Parameters were optimized before analysis by using direct syringe infusion. The retention times (tR, min; MRM ion pair) of the analytes and internal standard are as follows: harmine (2.2; 213.1→169.9), apratoxin A (4.7; 841.4→445.2), apratoxin S4 (BK) (4.1; 828.5→432.2), apratoxin S7 (BL) (4.05; 814.5→418.2), apratoxin S8 (BM) (5.2; 842.5→446.2), apratoxin S9 (BN) (4.9; 828.5→432.2). Compound-dependent parameters used were as follows: apratoxin A, declustering potential (DP) 51, entrance potential (EP) 12, collision energy (CE) 45, collision cell exit potential (CXP) 6, collision cell entrance potential (CEP) 32; and harmine, DP 56.0, EP 4.5, CE 44.0, CXP 5, CEP 16.0. Source gas parameters used were as follows: curtain gas, 15.0; collision gas low, ionspray voltage 5500; temperature, 600.0; ion source gas 150.0; ion source gas 2 60.0.
(§2) Calibration curves for apratoxin A, S4 (BK), S7 (BL), S8 (BM) and S9 (BN) in the presence of mouse serum, HCT116 cell lysates, and aqueous solutions were generated by least-square linear regression analysis of the analyte peak area and internal standard peak area ratio against the nominal concentration of the standard solutions. A linear regression analysis was performed, and the concentration of remaining apratoxins at each time point was determined through interpolation for plasma, cellular, and aqueous stability experiments. The amount of remaining apratoxins with microsome incubation was determined from the peak area ratio of apratoxins at tx (3 min to 3 h) and t0. All calculations were done by using Analyst 1.4.2 (Applied Biosystems) Quantitate Mode.

[1] = tested on: met proto-oncogene (MET) receptor; assay: Immunoblot analysis for RTK (MET) levels in HCT116 cells; type: cell-based, human; conditions: for activity compared with apratoxin S4 (BK) in all biological assays: HCT116, MET levels, cell viability, VEGF-A secretion
Protocol: HCT116 cells were seeded in 6-well plates at a density of 4×10^5 cells and the next day treated with various concentrations of apratoxins or solvent control. 24 h later, whole cell lysates were collected using PhosphoSafe buffer (EMD Chemicals, Inc, Gibbstown, N.J.). The protein concentration was measured with the BCA Protein Assay kit (Thermo Fisher Scientific, Rockford, Ill.). Lysates containing equal amounts of protein were separated by SDS polyacrylamide gel electrophoresis (4-12%), transferred to polyvinylidene difluoride membranes, probed with primary and secondary antibodies, and detected with the SuperSignal West Femto Maximum Sensitivity Substrate (Thermo Fisher Scientific). Anti-Met and secondary anti-mouse antibodies were from Cell Signaling Technology, Inc. (Danvers, Mass.).

[2] = Cellular stability in HCT116 cell lysate; type: in vitro ADME, human; conditions: HCT116 protein lysate 0.7 mg/mL, up to 24 h, FIG. 2D
Protocol: Aliquots of HCT116 cell lysates were diluted with 25 mM Tris-HCl buffer, pH 8.0, to give a final reaction volume of 100 μL and protein concentration of 0.7 mg/mL. Cell lysate solutions were incubated with 10 μL of apratoxin A, BK, BL, BM, or BN (25 μg/mL) for 0.25 min to 24 h (nine time points). Remaining apratoxin A, BK, BL, BM, or BN were extracted from the reaction solution at the end of the incubation periods with ethyl acetate using the same procedure as described for the plasma stability assay.
as §1, §2

Row | SMILES | % remaining (Microsomal stability; microsomes + NADPH, 0 min) [%] | % remaining (Microsomal stability; microsomes + NADPH, 3 min) [%] | % remaining (Microsomal stability; microsomes + NADPH, 5 min) [%] | % remaining (Microsomal stability; microsomes + NADPH, 15 min) [%] | % remaining (Microsomal stability; microsomes + NADPH, 30 min) [%] | % remaining (Microsomal stability; microsomes + NADPH, 60 min) [%] | % remaining (Microsomal stability; microsomes + NADPH, 120 min) [%] | % remaining (Microsomal stability; microsomes only, 0 min) [%] | % remaining (Microsomal stability; microsomes only, 3 min) [%] | % remaining (Microsomal stability; microsomes only, 5 min) [%] | % remaining (Microsomal stability; microsomes only, 15 min) [%] | % remaining (Microsomal stability; microsomes only, 30 min) [%] | % remaining (Microsomal stability; microsomes only, 60 min) [%] | % remaining (Microsomal stability; microsomes only, 120 min) [%] | activity compared with apratoxin S4 (BK) in all biological assays [1] | cellular stability [2] | potency in reducing levels of MET receptor ([1]; HCT116, immunoblot, 24 h, FIG. 1) | potency relative to the other apratoxins, MET levels ([1]; HCT116, immunoblot, FIG. 1)
1 | CC[C@H](C)[C@H]1C(=O)N2CCC[C@@H]2C(=O)O[C@H](C(C)(C)C)C[C@@H](C)C[C@H](O)C(C)(C)C2=N[C@@H](CCC(=O)N[C@@H](Cc3ccc(OC)cc3)C(=O)N(C)[C@@H](C)C(=O)N1C)CS2 [apratoxin S8 (BM), Apratoxin S8] | 100 | 37.20 ± 1.27 | 17.30 ± 2.55 | 8.28 ± 2.86 | 4.83 ± 1.05 | 3.55 ± 0.91 | 5.01 ± 0.23 | 100 | 74.10 ± 9.62 | 77.45 ± 3.18 | 63.45 ± 3.61 | 74.75 ± 8.70 | 81.25 ± 1.91 | 70.05 ± 0.78 | retained potent activity | excellent | – | –
2 | CC[C@H](C)[C@H]1C(=O)N2CCC[C@@H]2C(=O)O[C@H](C(C)(C)C)C[C@@H](C)C[C@H](O)CC2=N[C@@H](CCC(=O)N[C@@H](Cc3ccc(OC)cc3)C(=O)N(C)[C@@H](C)C(=O)N1C)CS2 [apratoxin S7 (BL), Apratoxin S7] | 100 | 54.95 ± 4.74 | 18.70 ± 1.41 | 52.40 ± 2.40 | 6.10 ± 1.96 | 5.41 ± 1.09 | 4.30 ± 0.82 | 100 | 66.60 ± 12.30 | 60.50 ± 2.26 | 76.55 ± 9.55 | 54.80 ± 1.56 | 54.50 ± 0.00 | 53.85 ± 9.40 | retained potent activity | excellent | – | –
3 | CC[C@H](C)[C@H]1C(=O)N2CCC[C@@H]2C(=O)O[C@H](C(C)(C)C)C[C@@H](C)C[C@H](O)[C@H](C)C2=N[C@H](CCC(=O)N[C@@H](Cc3ccc(OC)cc3)C(=O)N(C)[C@@H](C)C(=O)N1C)CS2 [apratoxin S9 (BN), Apratoxin S9] | 100 | 51.40 ± 8.06 | 17.80 ± 0.28 | 3.55 ± 0.25 | 3.73 ± 0.25 | 6.06 ± 2.40 | 5.63 ± 0.18 | 100 | 83.10 ± 0.42 | 71.40 ± 1.27 | 45.25 ± 5.30 | 56.05 ± 1.06 | 48.45 ± 0.92 | 56.25 ± 0.21 | retained potent activity | excellent | superior, picomolar (sub-nanomolar) potency | 2-3 fold
